Laboratory results: PubChem BioAssay (NCI)
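How tested: cells in 96-well plates exposed to compound for 48 hours at five concentrations. TGI is the concentration that stops growth completely.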

Columns and labels:
Assay in all cases: NCI tumour cell line growth inhibition, 48 h
[1] = test system: DLD-1 colon
[2] = test system: DMS 114 small cell lung
[3] = test system: DMS 273 small cell lung
[4] = test system: HOP-18 NSCLC
[5] = test system: LXFL 529 NSCLC
[6] = test system: SNB-78 CNS
[7] = test system: RXF-631 renal
[8] = test system: XF 498 CNS
[9] = test system: P388 leukemia
[10] = test system: SN12K1 renal

SMILES | TGI [1] [µM] | TGI [2] [µM] | TGI [3] [µM] | TGI [4] [µM] | TGI [5] [µM] | TGI [6] [µM] | TGI [7] [µM] | TGI [8] [µM] | TGI [9] [µM] | TGI [10] [µM]
O=C(OCc1ccccc1C1CSCSC1)c1cc(C(=O)OCc2ccccc2C2CSCSC2)c(C(=O)OCc2ccccc2C2CSCSC2)cc1C(=O)OCc1ccccc1C1CSCSC1 | > 100 | > 100 | > 100 | > 100 | > 100 | > 100 |  |  |  | 
C/C(=N\Nc1ccccc1)C(CN(C)C)C(c1ccccc1)c1c(O)c2ccccc2oc1=O (stereo not given) |  | > 100 |  |  | > 100 |  | > 100 |  |  | 
Cc1cc2n([O-])cccc-2[n+](=O)c1 | > 100 | > 100 | > 100 |  | > 100 | > 100 |  | > 100 |  | 
O=S1(=O)CCN(c2ccccc2CC(c2c[nH]c3ccccc23)c2c[nH]c3ccccc23)CC1 | 21.4 | > 100 | 37.5 | 32.7 | 25.7 | 74.3 |  |  |  | 
CCN(CC)CCCCC1CCN(CC(=O)N2c3ccccc3NC(=O)CC2C)CC1 (stereo not given) |  | > 100 | > 100 | > 100 | > 100 | > 100 | > 100 |  |  | 
Cc1cc([N+](=O)[O-])c(S(=O)(=O)c2ccccc2)c([N+](=O)[O-])c1 | 17 | 9.63 | 32.1 | 29.6 | 10.6 | 48.6 | > 100 | 27.6 |  | 
CC(c1ccccc1)N1CC(C)(c2ccccc2)N(O)C(c2ccccc2)C1C (stereo not given) | > 100 | 45.1 | > 100 | 51.2 | 37.3 | 89.9 | 82 |  |  | 
CC1(C)COC(c2c(-c3ccccc3)noc2CS(=O)c2ccccc2)=N1 (stereo not given) | > 100 | 99.1 | > 100 | 86.4 | > 100 | > 100 |  |  |  | 
OC12CCCCCC1(N1CCOCC1)c1ccccc12 (stereo not given) |  | > 100 | > 100 | > 100 | > 100 | > 100 |  |  |  | 
CC(C)(C)CC(C)(C)c1ccc(OCCOCC[N+](C)(C)Cc2ccccc2)cc1 | 20.3 | 4.02 | 2.57 | 7.32 |  | 4.26 | 34.2 |  |  | 
C/C(=C\Cc1cc(O)ccc1O)CCc1c(C)cc(O)c(C=O)c1C | 55.1 | 31.2 | 55.4 | 53.4 | 30.2 |  |  | 45.2 |  | 
CCOC1=C2NC(Cc3ccc(F)cc3)=NC2C(=O)c2ccccc21 (stereo not given) | > 100 | 61.9 | 81.3 |  | 77.3 | > 100 | > 100 |  |  | 
COc1ccc(-c2c3ccccc3c(-c3ccc(OCCCCCBr)cc3)c3ccccc23)cc1 | > 100 | > 100 | > 100 |  | > 100 |  |  |  |  | 
Cc1cc2occ(-c3ccc(Cl)cc3)c2c(=O)o1 | > 100 | > 100 | > 100 | > 100 | > 100 | > 100 | > 100 |  |  | 
c1ccc(OCCSCCCCCCCCCCSCCOc2ccccc2)cc1 |  | > 100 |  | > 100 | > 100 | > 100 | > 100 |  |  | 
CC(=O)Nc1ccc(C(=O)N2N=C(C)/C(=C/c3ccc(O)cc3)C2=O)cc1 | > 100 | > 100 | > 100 |  |  | > 100 |  | > 100 |  | 
Nc1c(N=Nc2ccc(-c3ccc(N=Nc4c(O)ccc5cc(S(=O)(=O)O)cc(S(=O)(=O)O)c45)cc3)cc2)c(S(=O)(=O)O)cc2cc(S(=O)(=O)O)c(N=Nc3ccccc3)c(O)c12 | > 100 | > 100 | > 100 | > 100 |  | > 100 |  | > 100 | > 100 | > 100
